pIC50: −log10 of the molar value.
target: GIRK1/4 (Homo sapiens (Human), UniProt P48544+P48549); test: GIRK1/4 inhibition, Quattro (IonWorks) population patch clamp, inward potassium current in GIRK 1/4 HEK293 stable cells (test assay No. 1); type: cell-based; details: percentage of current inhibition normalized to DMSO-only control
Protocol: The activity of a compound according to the present invention can be assessed by the following in vitro method. • 1. Buffers: • a. External buffer: 10 mM NaCl, 50 mM Na Gluconate, 80 mM K Gluconate, 1.8 mM CaCl2, 1 mM MgCl2, 10 mM HEPES, 10 mM Glucose, pH 7.4; osmolality […]. • b. Internal buffer: 30 mM KCl, 100 mM K Gluconate, 1 mM MgCl2, 10 mM HEPES, 1 mM EGTA, 10 mM NaCl, pH 7.2; osmolality […]. • 2. Compounds: • a. Prepare seven-fold compound dilution series (10 mM to 20 uM) in 100% DMSO, in 384-well polypropylene plates. • b. Propafenone (Sigma Aldrich, catalog number P4670) is used as a positive control and DMSO for neutral control • c. Resuspend 1 ul of compounds in DMSO into 65.7 ul external buffer in 384-well polypropylene plate and load into Plate 1 section of Molecular Devices Quattro • 3. Quattro setup: • a. Load 384-well Population Patch Plate (Molecular Devices #9000-0902) into Quattro • b. Fill Quattro F-soak trough with 20% DMSO and 50% EtOH • c. Fill Quattro buffer trough with external buffer • d. Attach internal buffer flask to Quattro internal buffer tubing • e. Attach PBS (Phosphate Buffered Saline, minus Ca^++ and Mg^++, pH7.4) bottle to F-head & E-head wash on Quattro • 4. Antibiotic: • a. Resuspend 5.6 mg amphotericin B (Sigma Aldrich, catalog number A2411) in 175 ul DMSO • b. Add the resulting solution to 50 ml internal buffer, mix and attach to antibiotic tubing port on Quattro • 5. Cells: • a. Use GIRK 1/4 HEK293 stable cells (obtained from ChanTest, 14656 Neo Parkway, Cleveland, Ohio 44128) grown to […] confluency in the following cell culture medium: DMEM containing 10% (v/v) Fetal Bovine Serum, Penicillin/Streptomycin (at “1×” concentration from a 100× stock), 0.5 mg/ml G418 and 0.1 mg/ml Zeocin. • b. Wash cells with PBS (minus Ca^++ and Mg^++), Detach cells using Detachin (Genlantis, 11011 Torreyana, San Diego, Calif. 92121), and resuspend in external buffer (5 ml final volume at 2.0-2.1×10^6 cells/ml) • c. Load into cell trough of Quattro • 6. Assay Protocol: • Quattro is controlled using IonWorks v2 software to perform the following steps: • a. Add 3.5 ul cells plus 3.5 ul external buffer to wells of Quattro Patch Plate • b. Circulate amphotericin B and internal buffer onto cells • c. Apply the following voltage protocol: Pulse 1: 15 mV for 300 milliseconds (ms), followed by Pulse 2: −120 mV for 400 ms, then Pulse 3: −15 mV for 400 ms, and finally Pulse 4: −120 mV to 40 mV over 500 ms (this is a voltage ramp). • d. Measure magnitude of inward potassium current at time point between 1200-1220 ms from start of Pulse 1 (i.e. during the voltage ramp phase). • e. Add 3.5 ul of diluted compounds (or DMSO) to wells and repeat steps c-d (final compound concentrations are 50 uM to 0.1 uM, for potent compounds 0.5 uM to 0.01 uM and each concentration is tested in quadruplicate—i.e. in 4 separate wells). • f. The difference between current magnitude pre vs. post-compound gives a measure of GIRK1/4 inhibition. • 7. Data analysis:
IC50 values are calculated by plotting the percentage of current inhibition (normalized to the DMSO-only control) as a function of compound concentration using standard data analysis software.

Chain of GIRK1/4 (P48549 whole entry): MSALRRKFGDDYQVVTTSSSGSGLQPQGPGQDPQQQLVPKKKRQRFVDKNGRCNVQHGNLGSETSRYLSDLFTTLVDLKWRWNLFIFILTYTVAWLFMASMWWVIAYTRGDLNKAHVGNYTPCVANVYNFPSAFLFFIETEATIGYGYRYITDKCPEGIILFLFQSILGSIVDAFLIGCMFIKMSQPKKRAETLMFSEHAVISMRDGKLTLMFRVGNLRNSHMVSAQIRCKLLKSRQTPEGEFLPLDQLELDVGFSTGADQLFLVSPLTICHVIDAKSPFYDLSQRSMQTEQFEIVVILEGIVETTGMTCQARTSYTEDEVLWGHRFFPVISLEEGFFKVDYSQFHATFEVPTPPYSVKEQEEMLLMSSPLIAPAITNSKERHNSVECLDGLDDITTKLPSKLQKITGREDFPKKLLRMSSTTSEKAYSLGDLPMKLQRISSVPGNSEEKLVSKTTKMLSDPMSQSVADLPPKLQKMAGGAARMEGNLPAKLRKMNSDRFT
Chain of GIRK1/4 (P48544 whole entry): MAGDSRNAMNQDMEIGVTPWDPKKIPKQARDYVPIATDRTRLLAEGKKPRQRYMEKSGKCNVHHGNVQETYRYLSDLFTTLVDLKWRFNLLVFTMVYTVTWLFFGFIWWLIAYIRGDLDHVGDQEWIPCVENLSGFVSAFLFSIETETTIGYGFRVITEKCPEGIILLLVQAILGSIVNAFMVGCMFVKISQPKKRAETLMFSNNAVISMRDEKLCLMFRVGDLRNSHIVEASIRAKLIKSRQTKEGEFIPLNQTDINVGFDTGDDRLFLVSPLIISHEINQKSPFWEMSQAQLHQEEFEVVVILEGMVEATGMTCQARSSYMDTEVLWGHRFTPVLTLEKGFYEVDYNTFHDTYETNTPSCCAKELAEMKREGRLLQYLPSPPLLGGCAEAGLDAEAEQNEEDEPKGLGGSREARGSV

In order of falling pIC50:
1. Cc1cc(=O)c2c(NCCOCCOCCOCCO)ncc(Cl)c2n1-c1c(Cl)cccc1Cl [Example 37, 8-chloro-1-(2,6-dichlorophenyl)-5-((2-(2-(2-(2-hydroxyethoxy)ethoxy)ethoxy)ethyl)amino)-2-methyl-1,6-naphthyridin-4(1H)-one]  8.22
2. Cc1cc(=O)c2c(OCC(O)CO)ncc(Cl)c2n1-c1c(Cl)cccc1Cl (stereo not drawn) [Example 38, 8-chloro-1-(2,6-dichlorophenyl)-5-(2,3-dihydroxypropoxy)-2-methyl-1,6-naphthyridin-4(1H)-one]  8.10
3. Cc1cc(=O)c2c(OCCNS(C)(=O)=O)ncc(Cl)c2n1-c1c(Cl)cccc1Cl [Example 36, N-(2-((8-chloro-1-(2,6-dichlorophenyl)-2-methyl-4-oxo-1,4-dihydro-1,6-naphthyridin-5-yl)oxy)ethyl)methanesulfonamide]  8.05
4. Cc1cc(=O)c2c(OCCO)ncc(Cl)c2n1-c1c(Cl)cccc1Cl [Example 48, 8-chloro-1-(2,6-dichlorophenyl)-5-(2-hydroxyethoxy)-2-methyl-1,6-naphthyridin-4(1H)-one]  8.05
5. Cc1cc(=O)c2c(OCC3COC3)ncc(Cl)c2n1-c1c(Cl)cccc1Cl [Example 50, 8-chloro-1-(2,6-dichlorophenyl)-2-methyl-5-(oxetan-3-ylmethoxy)-1,6-naphthyridin-4(1H)-one]  7.96
6. Cc1cc(=O)c2c(NC[C@H](O)CO)ncc(Cl)c2n1-c1c(Cl)cccc1Cl [Example 39, (S)-8-chloro-1-(2,6-dichlorophenyl)-5-((2,3-dihydroxypropyl)amino)-2-methyl-1,6-naphthyridin-4(1H)-one]  7.82
7. N#Cc1cc(=O)c2c(OCC(O)CO)ncc(Cl)c2n1-c1c(Cl)cccc1Cl (stereo not drawn) [Example 63, 8-Chloro-1-(2,6-dichlorophenyl)-5-(2,3-dihydroxpropoxy)-4-oxo-1,4-dihydro-1,6-naphthyridine-2-carbonitrile]  7.80
8. Cc1cc(=O)c2c(C(C)(O)C(=O)CO)ncc(Cl)c2n1-c1c(Cl)cccc1Cl (stereo not drawn) [Example 89, 8-Chloro-1-(2,6-dichlorophenyl)-5-(2,4-dihydroxy-3-oxobutan-2-yl)-2-methyl-1,6-naphthyridin-4(1H)-one]  7.62
9. Cc1cc(=O)c2c(OCC(C)(CO)CO)ncc(Cl)c2n1-c1c(Cl)cccc1Cl [Example 41, 8-chloro-1-(2,6-dichlorophenyl)-5-(3-hydroxy-2-(hydroxymethyl)-2-methylpropoxy)-2-methyl-1,6-naphthyridin-4(1H)-one]  7.55
10. COCc1cc(=O)c2c(OCC(O)CO)ncc(Cl)c2n1-c1c(Cl)cccc1Cl (stereo not drawn) [Example 54, 8-chloro-1-(2,6-dichlorophenyl)-5-(2,3-dihydroxypropoxy)-2-(methoxymethyl)-1,6-naphthyridin-4(1H)-one]  7.54
11. O=c1cc(CO)n(-c2c(Cl)cccc2Cl)c2c(Cl)cnc(OCCO)c12 [Example 12, 8-chloro-1-(2,6-dichlorophenyl)-5-(2-hydroxyethoxy)-2-(hydroxymethyl)-1,6-naphthyridin-4(1H)-one]  7.44
12. Cc1cc(=O)c2c(C(=O)CO)ncc(Cl)c2n1-c1c(Cl)cccc1Cl [Example 86, 8-Chloro-1-(2,6-dichlorophenyl)-5-(2-hydroxyacetyl)-2-methyl-1,6-naphthyridin-4(1H)-one]  7.43
13. N#Cc1cccc(Cl)c1-n1c(C2CC2)cc(=O)c2c(OCC(O)CO)ncc(Cl)c21 (stereo not drawn) [Example 55, 3-chloro-2-(8-chloro-2-cyclopropyl-5-(2,3-dihydroxypropoxy)-4-oxo-1,6-naphthyridin-1(4H)-yl)benzonitrile]  7.27
14. O=c1cc(CO)n(-c2c(Cl)cc(F)cc2Cl)c2c(Cl)cnc(OCCO)c12 [Example 61, 8-Chloro-1-(2,6-dichloro-4-fluorophenyl)-5-(2-hydroxyethoxy)-2-(hydroxymethyl)-1,6-naphthyridin-4(1H)-one]  7.17
15. CCc1cnc(OCC(O)CO)c2c(=O)cc(C)n(-c3c(Cl)cccc3Cl)c12 (stereo not drawn) [Example 69, 1-(2,6-Dichlorophenyl)-5-(2,3-dihydroxpropoxy)-8-ethyl-2-methyl-1,6-naphthyridin-4(1H)-one]  6.94
16. CC(C)(O)C(O)COc1ncc(Cl)c2c1c(=O)cc(CO)n2-c1c(Cl)cccc1Cl (stereo not drawn) [Example 4, 8-chloro-1-(2,6-dichlorophenyl)-5-(2,3-dihydroxy-3-methylbutoxy)-2-(hydroxymethyl)-1,6-naphthyridin-4(1H)-one]  6.85
17. Cc1cc(=O)c2c(Nc3nnnn3C)ncc(Cl)c2n1-c1c(Cl)cccc1Cl [Example 45, 8-chloro-1-(2,6-dichlorophenyl)-2-methyl-5-((1-methyl-1H-tetrazol-5-yl)amino)-1,6-naphthyridin-4(1H)-one]  6.83
18. Cc1cc(=O)c2c(OCCOCCOCCOCCO)ncc(Cl)c2n1-c1c(Cl)cccc1C#N [Example 21, 3-chloro-2-(8-chloro-5-(2-(2-(2-(2-hydroxyethoxy)ethoxy)ethoxy)ethoxy)-2-methyl-4-oxo-1,6-naphthyridin-1(4H)-yl)benzonitrile]  6.81
19. Cc1cc(=O)c2c(-n3cncn3)ncc(Cl)c2n1-c1c(Cl)cccc1Cl [Example 71, 8-Chloro-1-(2,6-dichlorophenyl)-2-methyl-5-(1H-1,2,4-triazol-1-yl)-1,6-naphthyridin-4(1H)-one]  6.75
20. O=c1cc(CO)n(-c2c(Cl)cc(F)cc2Cl)c2c(Cl)cnc(OCC(O)CO)c12 (stereo not drawn) [Example 60, 8-Chloro-1-(2,6-dichloro-4-fluorophenyl)-5-(2,3-dihydroxypropoxy)-2-(hydroxymethyl)-1,6-naphthyridin-4(1H)-one]  6.58
21. Cc1cc(=O)c2c(-c3cc[nH]n3)cncc2n1-c1c(Cl)cc(C#N)cc1Cl [Example 72, 3,5-dichloro-4-(2-methyl-4-oxo-5-(1H-pyrazol-3-yl)-1,7-naphthyridin-1(4H)-yl)benzonitrile]  6.55
22. O=c1cc(CO)n(-c2c(Cl)cccc2Cl)c2c(Cl)cnc(CC(O)CO)c12 (single isomer, unassigned) [Example 79, 8-Chloro-1-(2,6-dichlorophenyl)-5-(2,3-dihydroxypropyl)-2-(hydroxymethyl)-1,6-naphthyridin-4(1H)-one]  6.52
23. O=c1cc(CO)n(-c2c(Cl)cccc2Cl)c2c(Cl)cnc(CCC(O)CO)c12 (single isomer, unassigned) [Example 76, 8-chloro-1-(2,6-dichlorophenyl)-5-(3,4-dihydroxybutyl)-2-(hydroxymethyl)-1,6-naphthyridin-4(1H)-one]  6.45
24. O=c1cc(CO)n(-c2c(Cl)cccc2Cl)c2c(Cl)cnc(CC(O)CO)c12 (single isomer, unassigned) [Example 80, 8-Chloro-1-(2,6-dichlorophenyl)-5-(2,3-dihydroxypropyl)-2-(hydroxymethyl)-1,6-naphthyridin-4(1H)-one]  6.44
25. O=c1cc(CO)n(-c2c(Cl)cccc2Cl)c2c(Cl)cnc(CCC(O)CO)c12 (single isomer, unassigned) [Example 77, 8-chloro-1-(2,6-dichlorophenyl)-5-(3,4-dihydroxybutyl)-2-(hydroxymethyl)-1,6-naphthyridin-4(1H)-one]  6.44
26. CNc1cc2c(c(OCC(O)CO)n1)c(=O)cc(C)n2-c1c(Cl)cccc1Cl (stereo not drawn) [Example 65, 1-(2,6-Dichlorophenyl)-5-(2,3-dihydroxpropoxy)-2-methyl-7-(methylamino)-1,6-naphthyridin-4(1H)-one]  6.41
27. O=c1cc(CO)n(-c2c(Cl)cccc2Cl)c2c(Cl)cnc(OCCOCCOCCOCCO)c12 [Example 7, 8-chloro-1-(2,6-dichlorophenyl)-5-(2-(2-(2-(2-hydroxyethoxy)ethoxy)ethoxy)ethoxy)-2-(hydroxymethyl)-1,6-naphthyridin-4(1H)-one]  6.37
